For assay [1], the target named is T1, A2B adenosine receptor (A2BAR) (Homo sapiens, UniProt P29275).
T1 construct: gene ADORA2B
T1 sequence (P29275 1-332): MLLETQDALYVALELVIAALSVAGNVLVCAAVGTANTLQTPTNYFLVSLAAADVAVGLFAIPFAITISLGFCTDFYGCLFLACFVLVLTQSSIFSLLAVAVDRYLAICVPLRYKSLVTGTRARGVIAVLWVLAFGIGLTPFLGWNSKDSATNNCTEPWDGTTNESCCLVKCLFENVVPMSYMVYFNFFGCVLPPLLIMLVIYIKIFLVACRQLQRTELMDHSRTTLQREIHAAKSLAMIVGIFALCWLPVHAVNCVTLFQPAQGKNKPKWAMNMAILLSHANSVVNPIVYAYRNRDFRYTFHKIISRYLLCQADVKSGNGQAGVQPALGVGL
In words: agonist-induced cAMP production (AlphaLISA) in A549 cells with endogenous receptor; effect reversed by MRS […]. The class given is cell-based.

Assay [2] addresses T1, A2B adenosine receptor (A2BAR). In words: reversal at […] of BAY […]-6583-induced cAMP and ERK1/[…] phosphorylation in A549 cells. The assay is classed as cell-based.

For `N#Cc1c(N)nc(SCC(N)=O)c(C#N)c1-c1ccc(OCC2CC2)cc1` [BAY 60-6583, 2-[6-amino-3,5-dicyano-4-[4-(cyclopropylmethoxy)phenyl]pyridin-2-ylsulfanyl] acetamide], the EC50 (usually the concentration giving half of the maximal effect) in assay [1] is 0.0172 ± 0.0025 µM.

For `CCCn1c(=O)c2[nH]c(-c3ccc(OCC(=O)Nc4ccc(C(C)=O)cc4)cc3)nc2n(CCC)c1=O` [MRS1706, N-(4-acetylphenyl)-2-[4-(2,3,6,7-tetrahydro-2,6-dioxo-1,3-dipropyl-1H-purin-8-yl)phenoxy]-acetamide], the “reversal at 1 μM of BAY 60-6583-induced cAMP and ERK1/2 phosphorylation in A549” value in assay [2] was “The effects evoked by A2BAR stimulation were almost completely reversed by the A2BAR inverse agonist MRS1706”.

The values above are taken from paper PMC5797802, “The A2B Adenosine Receptor Modulates the Epithelial– Mesenchymal Transition through the Balance of cAMP/PKA and MAPK/ERK Pathway Activation in Human Epithelial Lung Cells” (Frontiers in Pharmacology, 2018).
